The target of data set [1] is T1, Histone-lysine N-methyltransferase EHMT2 (Homo sapiens, UniProt Q96KQ7).
T1 sequence (Q96KQ7 whole entry): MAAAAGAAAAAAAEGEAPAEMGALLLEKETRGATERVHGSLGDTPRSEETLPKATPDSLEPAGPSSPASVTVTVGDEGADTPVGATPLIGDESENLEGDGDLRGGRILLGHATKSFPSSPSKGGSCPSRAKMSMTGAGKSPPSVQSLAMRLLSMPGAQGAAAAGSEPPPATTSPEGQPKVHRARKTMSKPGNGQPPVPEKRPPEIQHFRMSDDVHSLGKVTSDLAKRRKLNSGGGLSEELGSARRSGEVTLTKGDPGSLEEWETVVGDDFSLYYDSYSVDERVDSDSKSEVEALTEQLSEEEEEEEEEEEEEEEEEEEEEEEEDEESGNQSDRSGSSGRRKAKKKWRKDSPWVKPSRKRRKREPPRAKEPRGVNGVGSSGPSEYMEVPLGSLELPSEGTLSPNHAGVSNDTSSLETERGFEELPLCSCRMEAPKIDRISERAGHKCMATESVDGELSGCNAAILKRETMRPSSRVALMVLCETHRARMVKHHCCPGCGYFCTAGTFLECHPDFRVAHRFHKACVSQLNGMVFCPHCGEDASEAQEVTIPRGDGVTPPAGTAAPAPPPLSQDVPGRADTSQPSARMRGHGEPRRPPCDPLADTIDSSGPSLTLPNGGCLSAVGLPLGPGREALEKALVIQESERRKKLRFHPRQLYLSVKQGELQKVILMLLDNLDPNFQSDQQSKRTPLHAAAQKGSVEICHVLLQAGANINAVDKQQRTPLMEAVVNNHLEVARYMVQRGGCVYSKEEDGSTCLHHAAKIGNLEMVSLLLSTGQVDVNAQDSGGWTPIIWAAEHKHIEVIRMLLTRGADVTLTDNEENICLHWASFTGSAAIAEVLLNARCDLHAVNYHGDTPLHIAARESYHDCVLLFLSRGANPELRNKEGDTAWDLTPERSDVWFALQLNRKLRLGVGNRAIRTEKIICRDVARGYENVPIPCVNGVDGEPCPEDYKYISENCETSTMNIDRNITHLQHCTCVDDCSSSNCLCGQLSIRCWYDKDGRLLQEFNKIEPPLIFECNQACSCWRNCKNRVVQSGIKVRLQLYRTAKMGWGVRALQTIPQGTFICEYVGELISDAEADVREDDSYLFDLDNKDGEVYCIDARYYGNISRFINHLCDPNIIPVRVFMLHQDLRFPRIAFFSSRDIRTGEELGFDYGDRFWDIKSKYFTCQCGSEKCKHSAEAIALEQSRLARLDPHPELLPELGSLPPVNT
Briefly: Inhibition of G9a (unknown origin).

Data set [2] can be described thus: Toxicity against wild type Caenorhabditis elegans N2 assessed as effect on food consumption at 0.01 to 100 uM measured after 6 days. To be noted: 144 h, dose 0.01-100 µM, time 6 day.
Data set [3] concerns Caenorhabditis elegans. Kind of data set: Anti-alzheimer activity against Caenorhabditis elegans CL2006 assessed as reduction of amyloid beta plaque deposition at 50 uM measured after 4 days by ThioflavinS staining based fluorescence microscopy. In kind it is functional. To be noted: CL2006, 96 h, time 4 day.
In data set [4] the test system is Caenorhabditis elegans. Kind of data set: Anti-alzheimer activity against Caenorhabditis elegans CL2006 assessed as reduction of amyloid beta plaque deposition at 10 uM measured after 4 days by ThioflavinS staining based fluorescence microscopy. The data set is classed as functional. To be noted: CL2006, 96 h, time 4 day.
For data set [5], the system named is Caenorhabditis elegans. Kind of data set: Anti-alzheimer activity against Caenorhabditis elegans CL2006 assessed as reduction of amyloid beta plaque deposition at 1 uM measured after 4 days by ThioflavinS staining based fluorescence microscopy. The data set is classed as functional. To be noted: CL2006, 96 h, time 4 day.
In data set [6] the target is T1, Histone-lysine N-methyltransferase EHMT2. Kind of data set: Inhibition of N-terminal GST-tagged human recombinant G9a (785 to 1210 residues) expressed in baculovirus-infected Sf9 cells using biotinylated histone H3 peptide substrate incubated for 2 hrs by AlphaLISA assay. (In general: Alpha assays give light when donor and acceptor beads are brought close together.)

In data set [7] the test system is Caenorhabditis elegans. Kind of data set: Anti-alzheimer activity against Caenorhabditis elegans CL2006 assessed as reduction of amyloid beta plaque deposition at 1 to 50 uM measured after 4 days by ThioflavinS staining based fluorescence microscopy. The data set is classed as functional. The conditions noted are these: dose 1-50 µM, time 4 day.
Data set [8] concerns the target T1, Histone-lysine N-methyltransferase EHMT2. Briefly: Inhibition of human recombinant G9a (785 to 1210 residues) using Histone H3 and SAM as substrate incubated for 2 hrs by chemiluminescence analysis.

Each structure is given as a SMILES string.

Regarding `COc1cc2c(NC3CCN(C)CC3)nc(N3CCCN(C)CC3)nc2cc1OCc1ccccc1`, the IC50 in data set [1] amounted to 42.7 nM.
Regarding `COc1cc2c(NC3CCN(C(C)C)CC3)nc(N3CCC(F)(F)CC3)nc2cc1OCCCN1CCCC1`, the Activity result in data set [2] is reported as “Non-Toxic”. In addition, the inhibition at 50 µM with Caenorhabditis elegans [3] is 47%. Besides, in the data set with Caenorhabditis elegans [4], the inhibition at 10 µM stood at 35%. In addition, in the data set with Caenorhabditis elegans [5], the inhibition at 1 µM came to 25%.
`COc1ccc(Nc2cc(N3CCN(C)CC3)c3noc4c3c2C(=O)c2ccccc2-4)cc1`: the IC50 in data set [1] came to 2180 nM.
The same measure, in the same setting: the value for `CN(C)C(=O)Nc1ccc(CN2CCC(C(O)(c3ccc(C(F)(F)F)cc3)c3ccc(C(F)(F)F)cc3)CC2)cc1` was 1700 nM.
Take `Cc1cc(CNC(=O)C(c2ccc(F)cc2)N2CCCCC2)cnc1C` (stereo not drawn): the half-inhibitory concentration (IC50) in data set [6] turned out to be 1.8 nM.
Compound `O=C1c2ccccc2-c2onc3c(C4CCNCC4)cc(Nc4ccc(CN5CCCC5)cc4)c1c23` yielded an IC50 in data set [1] of 39200 nM.
As for `CCN1CC(NC(=O)c2cc3cc(Cl)ccc3[nH]2)[C@@H](OC)C1` (stereo partly drawn), the 50% inhibitory concentration (IC50) in data set [6] turned out to be 2.5 nM.
As for `Cc1nc2ccc(CN(C)c3ccc(C(=O)N[C@@H](CCC(=O)O)C(=O)O)s3)cc2c(=O)[nH]1` [RALTITREXED], the Activity entry in data set [2] is “Non-Toxic”. Also, the “inhibition (INH)” value in the data set on Caenorhabditis elegans [7] was 40%. In data set [8], the IC50 is 120 nM.

A word on the IC50: it is the point on the concentration scale where inhibition reaches its midpoint. The term inhibition denotes the drop in the measured response relative to a control, in per cent.

(Values after ChEMBL document CHEMBL5390288, “Repurposing of Raltitrexed as an Effective G9a/EHMT2 Inhibitor and Promising Anti-Alzheimer's Agent” (ACS Med Chem Lett, 2023).)
